We go through three compounds from ChEMBL document CHEMBL1131476, “Synthesis of a methylenebis(phosphonate) analogue of mycophenolic adenine dinucleotide: a glucuronidation-resistant MAD analogue of NAD” (J Med Chem, 1998).

SMILES strings stand for the structures.

In general, IC50 refers to the concentration at which inhibition is half-maximal. A high value points to a need for much substance. A word on the Ki: it is a measure of affinity in units of concentration, obtained from inhibition or displacement. A lower Ki goes with higher affinity.

One assay relates to K562. In words: Inhibitory activity against growth of human erythroleukemia […] cells. The format is functional, cell-based.
The target of assay [1] is Inosine-5'-monophosphate dehydrogenase 2 (Homo sapiens, UniProt P12268). Description: Inhibitory activity against human Inosine-5'-monophosphate dehydrogenase 2 (IMPDH type II isoform).
Assay [2] concerns the target Inosine-5'-monophosphate dehydrogenase 1 (Homo sapiens, UniProt P20839). In words: Inhibitory activity against human Inosine-5'-monophosphate dehydrogenase 1 (IMPDH type I isoform); Range is 33-37 nM.

Sequence of Inosine-5'-monophosphate dehydrogenase 1 (P20839 whole entry, canonical isoform): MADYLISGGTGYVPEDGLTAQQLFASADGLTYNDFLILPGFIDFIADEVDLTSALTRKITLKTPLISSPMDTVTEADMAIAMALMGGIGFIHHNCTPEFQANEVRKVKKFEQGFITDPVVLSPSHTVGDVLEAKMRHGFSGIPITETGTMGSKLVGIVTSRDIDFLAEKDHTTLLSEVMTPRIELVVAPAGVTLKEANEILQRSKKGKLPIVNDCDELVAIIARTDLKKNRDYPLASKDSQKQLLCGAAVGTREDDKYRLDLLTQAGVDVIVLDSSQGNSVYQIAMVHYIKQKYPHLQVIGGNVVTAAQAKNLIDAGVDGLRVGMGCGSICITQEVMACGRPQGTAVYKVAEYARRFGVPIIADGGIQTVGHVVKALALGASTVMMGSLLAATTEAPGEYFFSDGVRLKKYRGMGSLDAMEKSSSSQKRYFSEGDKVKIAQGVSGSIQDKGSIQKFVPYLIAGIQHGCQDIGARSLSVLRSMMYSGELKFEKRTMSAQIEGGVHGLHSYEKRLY

As to `COc1c(C)c2c(c(O)c1C/C=C(\C)CCCO)C(=O)OC2`, it took 1500 nM to reach half-maximal inhibition in the assay on K562 (IC50). On to `COc1c(C)c2c(c(O)c1C/C=C(\C)CCCOP(=O)(O)CP(=O)(O)OC[C@@H]1OC(n3cnc4c(N)ncnc43)[C@@H](O)[C@H]1O)C(=O)OC2` (stereo not given in full), for which the IC50 in the assay with K562 was 1500 nM. The compound further showed an inhibition constant Ki in assay [1] of 300 nM. On to `COc1c(C)c2c(c(O)c1C/C=C(\C)CCC(=O)O)C(=O)OC2` [MYCOPHENOLIC ACID], for which, in assay [2], affinity was put at a Ki of 33 nM. Besides, in the assay on K562, the midpoint of inhibition, the IC50, lay at 80 nM.
